The nature of this data set: Solubility of the penem free acid in water. Type of data set: physicochemical.

The record followed here is patent publication US4774238A, “Heterocyclic-methylene-penems” (Beecham Group plc, priority 1985, dated 1988).

Regarding `Cn1cc(/C=C2/C(=O)N3C(C(=O)O)=CS[C@H]23)nn1` [penem free acid, Crystalline (5R) (Z)-6-(1-Methyl-1,2,3-triazol-4-ylmethylene)penem-3-carboxylic acid], the solubility in water entry is listed as “only sparingly soluble”.
